Measurements from US7368267B2, “Method for the oxidation of aromatic compounds” (BASF Aktiengesellschaft, priority 2001, dated 2008).
Like-named read-outs stand apart in the source and are kept apart here.

Key:
[1] = Partition coefficients in DOP/M9 (glucose) biphasic system; assay type: physicochemical
E. coli [2] = experiment: Toxic / inhibitory effect of substrate, products and organic phase on biomass growth of the cells; settings: in the aqueous phase
E coli = settings: at a pH of 7; cited from earlier work
E. coli [3] = tested on: E. coli
[4] = concentration in organic phase (dioctyl phthalate) relative to aqueous phase (M9 medium, glucose), triplicate

| Compound | Partition coefficient [1, 4] | concentration which inhibits biomass growth (E. coli [2]) [µM] | further results |
| --- | --- | --- | --- |
| pseudocumene (trimethylbenzene) | 24300 ± 1500 | – | concentration above which it is toxic to the cells (E. coli [2]): 15-25% |
| CC(=O)O [acetic acid] | – | – | concentration with inhibitory effect on cell growth (E coli): 5000 µg/mL |
| Cc1ccc(C(=O)O)cc1C [3,4-Dimethylbenzoic acid, 3,4-dimethylbenzoic acid] | – | – | Partition coefficient [1]: 0.188 ± 0.005; concentration which inhibits biomass growth (E. coli [3]): 16000 µM |
| Cc1ccc(C=O)cc1C [3,4-Dimethylbenzaldehyde, 3,4-dimethylbenzaldehyde] | 906 ± 20 | 1.812e+06 | – |
| Cc1ccc(CO)cc1C [3,4-Dimethylbenzyl alcohol, 3,4-dimethylbenzyl alcohol] | 50 ± 3 | 100000 | concentration above which it has a toxic effect on the cells (E. coli [2]): > 100000 µM |
